Laboratory results published in ChEMBL document CHEMBL3885861, “Open TG-GATES”.

Organism: Rattus norvegicus
Experiment: Open TG-GATES - Regimen: Daily Repeat
Type: toxicity, organism-based, Sprague-Dawley
Design: regimen Daily Repeat, gender Male, age 6 weeks
Conditions: in vivo, po, route gavage; for APTT / Bas / Eos / Fbg / Hb / Ht / Lym / MCH / MCHC / MCV / Mono / Neu / PT / Plat / RBC / Ret / WBC: tissue Blood; for KIDNEY_L / KIDNEY_R / KIDNEY_TOTAL: tissue Kidney; for LIVER: tissue Liver; for A/G / ALP / ALT / AST / BUN / CRE / Ca / Cl / DBIL / GLC / IP / K / LDH / Na / PL / RALB / TBIL / TC / TG / TP / gamma-GTP: tissue Plasma
[1] = 300 mg/kg, 72 h, dose level Middle, time 3 day
[2] = 300 mg/kg, […], dose level Middle, time 7 day
[3] = 300 mg/kg, […], dose level Middle, time 14 day
[4] = 300 mg/kg, […], dose level Middle, time 28 day
[5] = 1000 mg/kg, 72 h, dose level High, time 3 day
[6] = 1000 mg/kg, […], dose level High, time 7 day
[7] = 1000 mg/kg, […], dose level High, time 14 day
[8] = 1000 mg/kg, […], dose level High, time 28 day

## COC1=CC(=O)C[C@@H](C)[C@]12Oc1c(Cl)c(OC)cc(OC)c1C2=O [GRISEOFULVIN]
[1]
  TERMINAL_BW: 228.3 g
  APTT: 19.9 s
  Bas: 0%
  Eos: 1%
  Fbg: 220 mg/dL
  Hb: 13.6 g/dL
  Ht: 40.4%
  Lym: 73.2%
  MCH: 20.8 pg
  MCHC: 33.5%
  MCV: 62.1 fL
  Mono: 3%
  Neu: 22.2%
  PT: 12.5 s
  Plat: 118.4 x10_4/uL
  RBC: 651.8 x10_4/ul
  Ret: 6.7%
  WBC: 99.2 x10_2/uL
  KIDNEY_L: 0.9 g
  KIDNEY_R: 1 g
  KIDNEY_TOTAL: 1.9 g
  LIVER: 11.3 g
  A/G: 1.6
  ALP: 836.2 IU/L
  ALT: 44.4 IU/L
  AST: 68.2 IU/L
  BUN: 13.8 mg/dL
  CRE: 0.4 mg/dL
  Ca: 10.8 mg/dL
  Cl: 104.4 meq/L
  DBIL: 0.084 mg/dL
  GLC: 218.2 mg/dL
  IP: 7.6 mg/dL
  K: 3.8 meq/L
  LDH: 160.4 IU/L
  Na: 141.2 meq/L
  PL: 141.6 mg/dL
  RALB: 3.4 g/dL
  TBIL: 0.1 mg/dL
  TC: 80.4 mg/dL
  TG: 69 mg/dL
  TP: 5.6 g/dL
  gamma-GTP: 1.2 IU/L
[2]
  TERMINAL_BW: 261.2 g
  APTT: 19 s
  Bas: 0%
  Eos: 0.6%
  Fbg: 224 mg/dL
  Hb: 13.7 g/dL
  Ht: 40.7%
  Lym: 76.6%
  MCH: 21.2 pg
  MCHC: 33.7%
  MCV: 62.9 fL
  Mono: 3%
  Neu: 18.6%
  PT: 12.3 s
  Plat: 140.6 x10_4/uL
  RBC: 646.8 x10_4/ul
  Ret: 5.7%
  WBC: 118 x10_2/uL
  KIDNEY_L: 1.1 g
  KIDNEY_R: 1.1 g
  KIDNEY_TOTAL: 2.2 g
  LIVER: 12.8 g
  A/G: 1.4
  ALP: 848 IU/L
  ALT: 35.6 IU/L
  AST: 58.4 IU/L
  BUN: 13.4 mg/dL
  CRE: 0.4 mg/dL
  Ca: 10.7 mg/dL
  Cl: 104 meq/L
  DBIL: 0.08 mg/dL
  GLC: 207.6 mg/dL
  IP: 7.5 mg/dL
  K: 3.7 meq/L
  LDH: 136.6 IU/L
  Na: 142.6 meq/L
  PL: 122.8 mg/dL
  RALB: 3.4 g/dL
  TBIL: 0.1 mg/dL
  TC: 70.4 mg/dL
  TG: 60 mg/dL
  TP: 5.8 g/dL
  gamma-GTP: 0.8 IU/L
[3]
  TERMINAL_BW: 309.7 g
  APTT: 19.1 s
  Bas: 0%
  Eos: 1%
  Fbg: 228.6 mg/dL
  Hb: 14.2 g/dL
  Ht: 42.2%
  Lym: 82%
  MCH: 20.9 pg
  MCHC: 33.7%
  MCV: 61.9 fL
  Mono: 2.8%
  Neu: 13.6%
  PT: 12.2 s
  Plat: 115.6 x10_4/uL
  RBC: 682 x10_4/ul
  Ret: 2.8%
  WBC: 104.2 x10_2/uL
  KIDNEY_L: 1.3 g
  KIDNEY_R: 1.3 g
  KIDNEY_TOTAL: 2.6 g
  LIVER: 14.8 g
  A/G: 1.5
  ALP: 784.6 IU/L
  ALT: 32 IU/L
  AST: 51.4 IU/L
  BUN: 14.8 mg/dL
  CRE: 0.6 mg/dL
  Ca: 10.6 mg/dL
  Cl: 102.8 meq/L
  DBIL: 0.078 mg/dL
  GLC: 221.6 mg/dL
  IP: 7.5 mg/dL
  K: 4.3 meq/L
  LDH: 112.2 IU/L
  Na: 140.2 meq/L
  PL: 142.6 mg/dL
  RALB: 3.5 g/dL
  TBIL: 0.1 mg/dL
  TC: 82.2 mg/dL
  TG: 59.6 mg/dL
  TP: 5.9 g/dL
  gamma-GTP: 1 IU/L
[4]
  TERMINAL_BW: 406.6 g
  APTT: 23.1 s
  Bas: 0%
  Eos: 1%
  Fbg: 215.8 mg/dL
  Hb: 15.2 g/dL
  Ht: 44.7%
  Lym: 81%
  MCH: 19.9 pg
  MCHC: 34%
  MCV: 58.8 fL
  Mono: 3.2%
  Neu: 14.4%
  PT: 12.6 s
  Plat: 108.5 x10_4/uL
  RBC: 761 x10_4/ul
  Ret: 2.7%
  WBC: 136.8 x10_2/uL
  KIDNEY_L: 1.4 g
  KIDNEY_R: 1.3 g
  KIDNEY_TOTAL: 2.7 g
  LIVER: 17.3 g
  A/G: 1.3
  ALP: 565.4 IU/L
  ALT: 34.8 IU/L
  AST: 55.2 IU/L
  BUN: 15.6 mg/dL
  CRE: 0.5 mg/dL
  Ca: 10.6 mg/dL
  Cl: 103 meq/L
  DBIL: 0.07 mg/dL
  GLC: 237.6 mg/dL
  IP: 7.3 mg/dL
  K: 3.7 meq/L
  LDH: 159.8 IU/L
  Na: 140.6 meq/L
  PL: 125.8 mg/dL
  RALB: 3.4 g/dL
  TBIL: 0.1 mg/dL
  TC: 70.4 mg/dL
  TG: 83 mg/dL
  TP: 6 g/dL
  gamma-GTP: 1 IU/L
[5]
  TERMINAL_BW: 225 g
  APTT: 21.1 s
  Bas: 0%
  Eos: 1%
  Fbg: 220.8 mg/dL
  Hb: 13.5 g/dL
  Ht: 39.9%
  Lym: 79.2%
  MCH: 21.2 pg
  MCHC: 33.8%
  MCV: 62.6 fL
  Mono: 2.4%
  Neu: 17%
  PT: 12.5 s
  Plat: 122 x10_4/uL
  RBC: 637.2 x10_4/ul
  Ret: 6.9%
  WBC: 108.3 x10_2/uL
  KIDNEY_L: 1 g
  KIDNEY_R: 1 g
  KIDNEY_TOTAL: 2 g
  LIVER: 11.5 g
  A/G: 1.6
  ALP: 1064.4 IU/L
  ALT: 40.6 IU/L
  AST: 63.8 IU/L
  BUN: 13.8 mg/dL
  CRE: 0.4 mg/dL
  Ca: 10.8 mg/dL
  Cl: 103.6 meq/L
  DBIL: 0.074 mg/dL
  GLC: 213.4 mg/dL
  IP: 7.8 mg/dL
  K: 3.8 meq/L
  LDH: 184.2 IU/L
  Na: 140.2 meq/L
  PL: 125.8 mg/dL
  RALB: 3.4 g/dL
  TBIL: 0.1 mg/dL
  TC: 72.6 mg/dL
  TG: 45 mg/dL
  TP: 5.6 g/dL
  gamma-GTP: 1.4 IU/L
[6]
  TERMINAL_BW: 266.7 g
  APTT: 21 s
  Bas: 0%
  Eos: 0.8%
  Fbg: 231.6 mg/dL
  Hb: 13.3 g/dL
  Ht: 38.9%
  Lym: 79.2%
  MCH: 21.5 pg
  MCHC: 34.2%
  MCV: 62.9 fL
  Mono: 3%
  Neu: 16.2%
  PT: 12.4 s
  Plat: 145.2 x10_4/uL
  RBC: 618 x10_4/ul
  Ret: 6.6%
  WBC: 110.8 x10_2/uL
  KIDNEY_L: 1.1 g
  KIDNEY_R: 1.1 g
  KIDNEY_TOTAL: 2.3 g
  LIVER: 13.5 g
  A/G: 1.3
  ALP: 845.8 IU/L
  ALT: 31.6 IU/L
  AST: 56.8 IU/L
  BUN: 15.2 mg/dL
  CRE: 0.4 mg/dL
  Ca: 10.8 mg/dL
  Cl: 103.8 meq/L
  DBIL: 0.064 mg/dL
  GLC: 207 mg/dL
  IP: 7.3 mg/dL
  K: 3.8 meq/L
  LDH: 150.2 IU/L
  Na: 142 meq/L
  PL: 126.8 mg/dL
  RALB: 3.4 g/dL
  TBIL: 0.1 mg/dL
  TC: 76.4 mg/dL
  TG: 45.4 mg/dL
  TP: 5.9 g/dL
  gamma-GTP: 1.2 IU/L
[7]
  TERMINAL_BW: 318.3 g
  APTT: 20.2 s
  Bas: 0%
  Eos: 1%
  Fbg: 229.6 mg/dL
  Hb: 14.2 g/dL
  Ht: 42.1%
  Lym: 79.8%
  MCH: 21 pg
  MCHC: 33.8%
  MCV: 62 fL
  Mono: 3%
  Neu: 15.2%
  PT: 12.6 s
  Plat: 114.7 x10_4/uL
  RBC: 678.4 x10_4/ul
  Ret: 2.8%
  WBC: 112.6 x10_2/uL
  KIDNEY_L: 1.3 g
  KIDNEY_R: 1.3 g
  KIDNEY_TOTAL: 2.6 g
  LIVER: 14.6 g
  A/G: 1.4
  ALP: 803.4 IU/L
  ALT: 32 IU/L
  AST: 56 IU/L
  BUN: 14.6 mg/dL
  CRE: 0.5 mg/dL
  Ca: 10.8 mg/dL
  Cl: 103 meq/L
  DBIL: 0.076 mg/dL
  GLC: 205.2 mg/dL
  IP: 7.4 mg/dL
  K: 4.2 meq/L
  LDH: 135.6 IU/L
  Na: 140.6 meq/L
  PL: 138.6 mg/dL
  RALB: 3.4 g/dL
  TBIL: 0.1 mg/dL
  TC: 81.4 mg/dL
  TG: 55.4 mg/dL
  TP: 5.9 g/dL
  gamma-GTP: 1 IU/L
[8]
  TERMINAL_BW: 423.7 g
  APTT: 24.8 s
  Bas: 0%
  Eos: 1%
  Fbg: 230.8 mg/dL
  Hb: 14.6 g/dL
  Ht: 43.2%
  Lym: 84.4%
  MCH: 20.4 pg
  MCHC: 33.9%
  MCV: 60.1 fL
  Mono: 2.4%
  Neu: 11.4%
  PT: 13 s
  Plat: 113.5 x10_4/uL
  RBC: 718.4 x10_4/ul
  Ret: 3.3%
  WBC: 158.4 x10_2/uL
  KIDNEY_L: 1.6 g
  KIDNEY_R: 1.5 g
  KIDNEY_TOTAL: 3.1 g
  LIVER: 19.4 g
  A/G: 1.3
  ALP: 500.8 IU/L
  ALT: 39.2 IU/L
  AST: 55 IU/L
  BUN: 14.8 mg/dL
  CRE: 0.5 mg/dL
  Ca: 10.5 mg/dL
  Cl: 103 meq/L
  DBIL: 0.062 mg/dL
  GLC: 234.6 mg/dL
  IP: 7.3 mg/dL
  K: 3.7 meq/L
  LDH: 159 IU/L
  Na: 140.6 meq/L
  PL: 138 mg/dL
  RALB: 3.4 g/dL
  TBIL: 0.1 mg/dL
  TC: 88.6 mg/dL
  TG: 38 mg/dL
  TP: 6.2 g/dL
  gamma-GTP: 0.8 IU/L
